Laboratory results: patent US10556844B2, “Pyrazole compounds as nitrification inhibitors” (BASF SE, priority 2015, dated 2020)

System: nitrification
Test: Inhibition of nitrification in field soil (48 well plate, ammonium sulfate, colour reaction read at 540 nm)
Settings: for IN (best inhibition value obtained for a compound): soil, room temperature, up to 72 hrs
Experimental: The compounds of the invention have been tested as follows in terms of the inhibition of nitrification:
Soil was sampled fresh from a field (e.g. Limburgerhof), dried and sieved through a 500 μm sieve. Approximately 200 mg of soil were placed into each well of a 48 well plate. Compounds, or DMSO alone, were added at a concentration of 10 ppm, dissolved in 1% DMSO. 6 μmol ammonium sulfate was added per well as well as 4.8 mg NaClO3.
Subsequently, the samples were incubated at room temperature for up to 72 hrs. After the incubation period 64 mg KCl were added and mixed. 25 μl of the supernatant were placed into a fresh plate and 260 μl of a color reaction solution (from Merck Nr 1.11799.0100) were added.
Measurements were taken with a Tecan plate Reader at 540 nm wavelength.
Inhibition is calculated as x=% activity compared to control, and converted to 100-x to give the value of inhibition, rather than activity.

| SMILES | IN (best inhibition value obtained for a compound) (dose of 10 ppm) | also measured |
| --- | --- | --- |
| C#CCn1nc(O)c2ccccc21 [Compound A-14] | 59% |  |
| C#CCn1cccn1 [Compound A-19] | 45% |  |
| C#CCn1ncc2c1C(=O)c1ccccc1C2=O [Compound A-33] | 44% |  |
| C#CCn1ncc(C(=O)O)c1C [Compound A-42] | 17% |  |
| C#CCn1nc(C)c(OC(C)=O)c1C [Compound A-44] |  | IN (best inhibition value obtained for a compound) (dose of 5±1 ppm): 59% |
| C=C=Cn1ccc(C)n1 [Compound B-5] | >10% |  |
| C=C=Cn1nccc1C [Compound B-6] | >10% |  |
| C#Cc1ccccc1 [Phenylacetylene, phenylacetylene, reference compound] |  | IN (inhibition value) (reference compound, same conditions, dose of 10 ppm): 7% |
